Experimental data published in US6933277B2, “Prevention of fetal alcohol syndrome and neuronal cell death with ADNF polypeptides” (The United States of America as represented by the …, priority 1999, dated 2005).
No end group written: not given here.

Columns and labels:
[1] = system: model for FAS, C57B 1/6J mouse strain; assay: Fetal demise at E18 in mouse model for FAS (alcohol on E8, peptide pretreatment); assay type: in vivo; settings: for percentage of fetal demises: E18, pretreatment 30 min prior to alcohol (25% ethyl alcohol i.p., 0.030 ml/g) on E8, NAPVSIPQ 20 μg, SALLRSIPA 20 μg, VIP 1 μg, combination 20 μg+20 μg; for alcohol toxicity as measured by fetal demises and weight (summary): summary of fetal demises and weights (fetal and fetal brain) at E18
Protocol: (§1) C57-B16J female mice (Jackson Labs) were kept under a 12 h light, 12 h dark regimen with food and water available at all times. The mice received humane animal care in compliance with the “Guideline for Care and Use of Experimental Animals.” Six week old females (21-24 grams) were mated with C57-B 16J males for 4 h. The presence of a vaginal plug was considered day 0 pregnancy.
(§2) A published well-delineated model for FAS was followed (Webster, W. S., et al., Neurobehav Tox, 2:227-34 (1980)). Animals were injected (intraperitoneal) on E8 with […] in saline (v/v) or vehicle alone at 0.030 ml/g body weight. Pretreatment with VIP and ADNF peptides (NAPVSIPQ (SEQ ID NO:2), SALLRSIPA (SEQ ID NO:1), NAPVSIPQ (SEQ ID NO:2)+SALLRSIPA (SEQ ID NO:1)) were given 30 min prior to alcohol. Dosages of the neuropeptides were NAPVSIPQ (SEQ ID NO:2) (20 μg) and (40 μg), SALLRSIPA (SEQ ID NO:1) (20 μg), NAPVSIPQ (SEQ ID NO:2) (20 μg)+(20 μg); VIP (1 μg). A NAPVSIPQ (SEQ ID NO:2)+SALLRSIPA (SEQ ID NO:1) control group without alcohol was studied. NAPVSIPQ (SEQ ID NO:2) was diluted in 50 μl DMSO and diluted in filtered Dulbecco's phosphate buffered saline (DPBS). SAL was dissolved and diluted in filtered DPBS. VIP was dissolved in […] glacial acetic acid and diluted in HPLC water and DPBS. Since the animals receiving alcohol were incapacitated for approximately 6 h following injection, food and water were withheld from all groups for the initial 6 hours after injection, to allow accurate assessment of fetal weights.
(§3) At E18 (embryonic gestation day 18), the number of live and demised fetuses was determined. Fetal weights and fetal brain weights were obtained for each fetus in the litter. The mean fetal weights were determined for each mother and this was used for statistical analysis.
(§4) The mean litter pup and fetal brain weight was calculated, with the litter mean used for all statistical analysis. Percent demises were calculated by dividing the number of demises by the total number of fetuses (live plus demises). Statistical analysis included ANOVA for continuous variables, Mann-Whitney U for nonparametic data, Chi square for categorical variables or Fisher's exact test where appropriate [Statview 4.5 (Abacus Concepts, Inc., Berkeley, Calif.)] with p<0.05 considered significant. Results are presented as mean±standard error unless specified.
(§5) The C57B 1/6J mouse strain provided a well-characterized model for FAS. Previous work with this strain has defined the effects of dosage and embryonic timing on maternal serum alcohol levels and embryonic effects (Webster et al., Neurobehav Tox, 2:227-34 (1980)), incorporated herein by reference. Intra-peritoneal treatment allowed for defined and reproducible dosages. […] The mice were injected with 25% ethyl alcohol in saline (v/v) or vehicle alone at 0.030 ml/g maternal body weight at 0900 on E8. Pretreatment with the study peptides was given 30 minutes prior to alcohol administration. […]
To assess the protective effects of the ADNF peptides in the most severe form of stress, the number of fetal death was determined. […]

[2] = system: model for FAS, C57B 1/6J mouse strain; assay: Fetal weights and fetal brain weights at E18 in mouse model for FAS; assay type: in vivo; settings: pretreatment 30 min prior to alcohol on E8; for fetal weights (alcohol-induced growth restriction): NAPVSIPQ 20 μg, VIP 1 μg
Protocol: as §1, §2, §3, §4, §5
In the surviving E18 fetuses, fetal and fetal brain weights were evaluated to assess the protective effects of the ADNF peptides. […]

[3] = stated without test; cited from earlier work
[4] = surviving E18 fetuses, SALLRSIPA 20 μg, combination 20 μg+20 μg

Substance | percentage of fetal demises [1] | fetal weights (alcohol-induced growth restriction) [2, 4] | alcohol toxicity as measured by fetal demises and weight (summary) [1] | fetal brain weights (alcohol-induced fetal brain weight reduction) [2, 4] | crossing of the blood brain barrier [3] | alcohol-induced growth restriction ([2]; double dosage of NAPVSIPQ (40 μg), E18)
vasoactive intestinal peptide (HSDAVFTDNYTRLRKQMAVKKYLNSILN; ends and bridges not checked; UniProt P01282 125-152, looked up) [VIP, neuropeptide that is a regulator of early postimplantation mouse embryonic growth, reference compound] | slightly improved the fetal demise rate | improved embryonic weights; however, the effect was intermediate |  |  |  | 
SALLRSIPA [Ser-Ala-Leu-Leu-Arg-Ser-Ile-Pro-Ala] | unable to bring the fetal demise rate to control levels | did not prevent the alcohol-induced fetal weight reduction | moderately prevented alcohol toxicity | moderately prevented the alcohol-induced fetal brain weight reduction | cross the blood brain barrier | 
NAPVSIPQ [Asn-Ala-Pro-Val-Ser-Ile-Pro-Gln] | prevented the demises seen with alcohol | moderately prevented the alcohol-induced growth restrictions | moderately prevented alcohol toxicity |  | cross the blood brain barrier | moderately prevented the alcohol-induced growth restriction
